In patent publication US10100046B2, “Inhibitors of lysine specific demethylase-1” (Celgene Quanticel Research, Inc., priority 2014, dated 2018):

Tests used:
[1] = molecular target: full-length human LSD1 (Homo sapiens (Human), UniProt O60341); assay: In Vitro Enzyme Inhibition Assay—LSD-1 (TR-FRET); assay type: biochemical; details: H3K4me1-biotin labeled peptide
Description: This assay determines the ability of a test compound to inhibit LSD1 demethylase activity. E. coli expressed full-length human LSD1 (Accession number 060341) was purchased from Active Motif (Cat#31334).
The enzymatic assay of LSD1 activity is based on Time Resolved-Fluorescence Resonance Energy Transfer (TR-FRET) detection. The inhibitory properties of compounds to LSD1 were determined in 384-well plate format under the following reaction conditions: 0.1-0.5 nM LSD1, 50 nM H3K4me1-biotin labeled peptide (Anaspec cat #64355), 2 μM FAD in assay buffer of 50 mM HEPES, pH7.3, 10 mM NaCl, 0.005% Brij35, 0.5 mM TCEP, 0.2 mg/ml BSA. Reaction product was determined quantitatively by TR-FRET after the addition of detection reagent Phycolink Streptavidin-allophycocyanin (Prozyme) and Europium-anti-unmodified histone H3 lysine 4 (H3K4) antibody (PerkinElmer) in the presence of LSD1 inhibitor such as 1.8 mM of Tranylcypromine hydrochloride (2-PCPA) in LANCE detection buffer (PerkinElmer) to final concentration of 12.5 nM and 0.25 nM respectively.
The assay reaction was performed according to the following procedure: 2 μL of the mixture of 150 nM H3K4me1-biotin labeled peptide with 2 μL of 11-point serial diluted test compound in 3% DMSO were added to each well of plate, followed by the addition of 2 μL of 0.3 nM LSD1 and 6 μM of FAD to initiate the reaction. The reaction mixture was then incubated at room temperature for one hour, and terminated by the addition of 6 μL of 1.8 mM 2-PCPA in LANCE detection buffer containing 25 nM Phycolink Streptavidin-allophycocyanin and 0.5 nM Europium-anti-unmodified H3K4 antibody. Enzymatic reaction is terminated within 15 minutes if 0.5 LSD1 enzyme is used in the plate. Plates were read by EnVision Multilabel Reader in TR-FRET mode (excitation at 320 nm, emission at 615 nm and 665 nm) after 1 hour incubation at room temperature. A ratio was calculated (665/615) for each well and fitted to determine inhibition constant (IC50).
The ability of the compounds disclosed herein to inhibit LSD1 activity was quantified and the respective IC50 value was determined. Table 3 provides the IC50 values of various substituted heterocyclic compounds disclosed herein.

[2] = test system: THP-1 (AML) cells; assay: LSD1 CD11b Cellular Assay (flow cytometry); assay type: cell-based; details: Homo sapiens, 96 h; CD11b expression in THP-1 cells, 4 days
Description: To analyze LSD1 inhibitor efficacy in cells, a CD11b flow cytometry assay was performed. LSD1 inhibition induces CD11b expression in THP-1 (AML) cells which can be measured by flow cytometry. […] LSD1 test compounds were serially diluted in DMSO. The dilutions were added to each well accordingly to a final concentration of 0.2% DMSO. The cells were incubated at 37 degrees Celsius in 5% CO2 for 4 days. 250 μL of each well was transferred to a well in a 96 well round bottom plate. The plate was centrifuged at 1200 rpm at 4 degrees Celsius in a Beckman Coulter Alegra 6KR centrifuge for 5 minutes. The media was removed leaving the cells at the bottom of the wells. The cells were washed in 100 μL cold HBSS (Hank's Balanced Salt Solution) plus 2% BSA (Bovine Serum Albumin) solution and centrifuged at 1200 rpm at 4 degrees Celsius for 5 minutes. The wash was removed. […] The cells were centrifuged and washed two times in 100 μl HBSS plus 2% BSA. After the final spin the cells were resuspended in 100 μL HBSS plus 2% BSA containing 1 ug/mL DAPI (4′,6-diamidino-2-phenylindole). The cells were then analyzed by flow cytometry in a BD FACSAria machine. Cells were analyzed for CD11b expression. The percent of CD11b expressing cells for each inhibitor concentration was used to determine an IC50 curve for each compound analyzed.

Compound | IC50 [1] [nM] | IC50 [2] [nM]
N#Cc1ccc(-c2nc(N3CCC4NCCC4C3)cc(=O)n2-c2ccc(C3CC3)cc2)cc1F (centres unmarked) [Example 27, 4-[4-(1,2,3,3a,4,6,7,7a-octahydropyrrolo[3,2-c]pyridin-5-yl)-1-(4-cyclopropylphenyl)-6-oxopyrimidin-2-yl]-2-fluorobenzonitrile] | ≤ 100 | < 100
N#Cc1ccc(-c2nc(C(=O)N3CCC[C@@H](N)C3)sc2-c2cnn(CC3CC3)c2)cc1 [Example 22, 4-{2-[(3R)-3-aminopiperidine-1-carbonyl]-5-[1-(cyclopropylmethyl)-1H-pyrazol-4-yl]-1,3-thiazol-4-yl}benzonitrile] | ≤ 100 | 100 to 1000
Cn1cnc2cc(-c3sc(C(=O)N4CCC[C@H](N)C4)nc3-c3ccc(C#N)cc3)ccc21 [Example 17, 4-{2-[(3 S)-3-aminopiperidine-1-carbonyl]-5-(1-methyl-1H-1,3-benzodiazol-5-yl)-1,3-thiazol-4-yl}benzonitrile] | ≤ 100 | < 100
Cn1cc2cc(-c3sc(N4CCC(N)CC4)nc3-c3ccc(C#N)cc3)ccc2n1 [Example 34] | ≤ 100 | < 100
Cn1ncc2cc(-c3sc(N4CCC5(CCNC5)CC4)nc3-c3ccc(C#N)cc3)ccc21 [Example 5, 4-(2-{2,8-diazaspiro[4.5]decan-8-yl}-5-(1-methyl-1H-indazol-5-yl)-1,3-thiazol-4-yl)benzonitrile] | ≤ 100 | 100 to 1000
N#Cc1ccc(-c2nc(N3CC[C@@H]4CNC[C@@H]4CC3)sc2-c2cnn(CC3CC3)c2)cc1 [Example 15, 4-{5-[1-(cyclopropylmethyl)-1H-pyrazol-4-yl]-2-{decahydropyrrolo[3,4-d]azepin-6-yl}-1,3-thiazol-4-yl}benzonitrile] | ≤ 100 | 100 to 1000
Cn1ncc2cc(-c3sc(N4CCC5NCCC5C4)nc3-c3ccc(C#N)cc3)ccc21 (centres unmarked) [Example 6] | ≤ 100 | < 100
Cn1cnc2cc(-c3sc(N4CCC(N)CC4)nc3-c3ccc(C#N)cc3)ccc21 [Example 8, 4-[2-(4-aminopiperidin-1-yl)-5-(1-methyl-1H-1,3-benzodiazol-5-yl)-1,3-thiazol-4-yl]benzonitrile] | ≤ 100 | < 100
N#Cc1ccc(-c2nc(N3CCC(N)CC3)cc(=O)n2-c2ccc(C3CC3)cc2)cc1F [Example 26, 4-[4-(4-Aminopiperidin-1-yl)-1-(4-cyclopropylphenyl)-6-oxopyrimidin-2-yl]-2-fluorobenzonitrile] | ≤ 100 | < 100
Cn1ncc2cc(-c3sc(N4CCC5CNCC5C4)nc3-c3ccc(C#N)cc3)ccc21 (centres unmarked) [Example 7] | ≤ 100 | < 100
Cn1ccc2cc(-c3sc(N4CCC(N)CC4)nc3-c3ccc(C#N)cc3)cnc21 [Example 3, 4-[2-(4-aminopiperidin-1-yl)-5-{1-methyl-1H-pyrrolo[2,3-b]pyridin-5-yl}-1,3-thiazol-4-yl]benzonitrile] | ≤ 100 | < 100
N#Cc1ccc(-c2nc(N3CCC4(CCNC4)CC3)cc(=O)n2-c2ccc(C3CC3)cc2)cc1F [Example 29, 4-[1-(4-cyclopropylphenyl)-4-(2,8-diazaspiro[4.5]decan-8-yl)-6-oxopyrimidin-2-yl]-2-fluorobenzonitrile] | ≤ 100 | < 100
COc1ccc(-n2c(-c3ccc(C#N)c(F)c3)nc(N3CCC(N)CC3)cc2=O)cc1 [Example 32, 4-[4-(4-aminopiperidin-1-yl)-1-(4-methoxyphenyl)-6-oxopyrimidin-2-yl]-2-fluorobenzonitrile] | ≤ 100 | –
Cn1ncc2cc(-c3sc(N4CC[C@@H]5CNC[C@@H]5CC4)nc3-c3ccc(C#N)cc3)ccc21 [Example 2, cis-4-(2-{decahydropyrrolo[3,4-d]azepin-6-yl}-5-(1-methyl-1H-indazol-5-yl)-1,3-thiazol-4-yl)benzonitrile] | – | < 100
